Source: ChEMBL document CHEMBL5233249, “Recent advancements in the development of heterocyclic anti-inflammatory agents” (Eur J Med Chem, 2020)

Key:
Rattus norvegicus [1] = test: Anti-inflammatory activity against Carrageenan-induced paw edema in Wistar albino rat ulcerogenic activity assessed as reduction in severity index; assay type: functional
Rattus norvegicus [2] = test: Anti-inflammatory activity in Carageenan-induced paw edema Wistar rat model assessed as reduction in paw edema volume relative to control; assay type: functional; parameters: scale not given: the % may be the effect or the level left
Mus musculus [3] = test: Anti-inflammatory activity in Carrageenan-induced paw edema in PO dosed mouse at 100 mg/kg assessed as inhibition of edema measured after 3 hr relative to control; assay type: functional; parameters: scale not given: the % may be the effect or the level left
Rattus norvegicus [4] = test: Anti-inflammatory activity against Carrageenan-induced paw edema in PO dosed Wistar albino rat assessed as inhibition of edema measured after 4 hr relative to control; assay type: functional; parameters: scale not given: the % may be the effect or the level left
Rattus norvegicus [5] = test: Anti-inflammatory activity in Carageenan-induced foot paw edema in Swiss albino rat assessed as reduction in volume of paw edema measured after 2 hr relative to control; assay type: functional; parameters: scale not given: the % may be the effect or the level left
Rattus norvegicus [6] = test: Anti-inflammatory activity in Carrageenan-induced paw edema in Wistar albino rat assessed as reduction in paw edema measured after 3 hr relative to control; assay type: functional; parameters: scale not given: the % may be the effect or the level left
Rattus norvegicus [7] = test: Anti-inflammatory activity in Carrageenan-induced paw edema in Wistar albino rat assessed as reduction in paw edema measured after 2 hr relative to control; assay type: functional; parameters: scale not given: the % may be the effect or the level left
Rattus norvegicus [8] = test: Anti-inflammatory activity in Carrageenan-induced paw edema in PO dosed Swiss albino rat model at 30 mg/kg assessed as inhibition in volume of edema measured after 1 hrs relative to control; assay type: functional
Rattus norvegicus [9] = test: Anti-inflammatory activity in Carrageenan-induced paw edema in Wistar albino rat assessed as inhibition of edema measured after 3 hrs relative to control; assay type: functional
Rattus norvegicus [10] = test: Anti-ulcerative activity in aspirin induced Wistar rat ulcer model assessed as inhibition of ulcer index at 20 mg/kg,po; assay type: functional
Rattus norvegicus [11] = test: Anti-inflammatory activity in Carageenan-induced foot paw edema in Swiss albino rat assessed as reduction in volume of paw edema measured after 6 hr relative to control; assay type: functional; parameters: scale not given: the % may be the effect or the level left
Rattus norvegicus [12] = test: Anti-inflammatory activity in Carageenan-induced foot paw edema in Swiss albino rat assessed as reduction in volume of paw edema measured after 4 hr relative to control; assay type: functional; parameters: scale not given: the % may be the effect or the level left
Rattus norvegicus [13] = test: Anti-inflammatory activity in Carrageenan-induced paw edema in Wistar albino rat assessed as reduction in paw edema measured after 1 hr relative to control; assay type: functional; parameters: scale not given: the % may be the effect or the level left
Rattus norvegicus [14] = test: Anti-inflammatory activity in Carageenan-induced foot paw edema in Swiss albino rat assessed as reduction in volume of paw edema measured after 1 hr relative to control; assay type: functional; parameters: scale not given: the % may be the effect or the level left
Rattus norvegicus [15] = test: Anti-inflammatory activity against Carrageenan-induced paw edema in PO dosed Wistar albino rat assessed as inhibition of edema measured after 2 hr relative to control; assay type: functional; parameters: scale not given: the % may be the effect or the level left
Rattus norvegicus [16] = test: Anti-inflammatory activity against Carrageenan-induced paw edema in PO dosed Wistar albino rat assessed as inhibition of edema measured after 1 hr relative to control; assay type: functional; parameters: scale not given: the % may be the effect or the level left
Mus musculus [17] = test: Anti-inflammatory activity against Carrageenan-induced paw edema in mouse model assessed as reduction in volume of edema at 100 mg/kg measured after 24 hrs relative to control; assay type: functional; parameters: scale not given: the % may be the effect or the level left
Mus musculus [18] = test: Anti-inflammatory activity against Carrageenan-induced paw edema in mouse model assessed as reduction of edema at 50 mg/kg measured after 4 hrs relative to control; assay type: functional; parameters: scale not given: the % may be the effect or the level left
Rattus norvegicus [19] = test: Anti-inflammatory activity in Carrageenan-induced rat paw edema in Wistar rat assessed as reduction in inhibition of edema measured after 4 hrs relative to control; assay type: functional; parameters: scale not given: the % may be the effect or the level left
Rattus norvegicus [20] = test: Anti-inflammatory activity against Carrageenan-induced paw edema in PO dosed Wistar albino rat assessed as inhibition of edema measured after 3 hr relative to control; assay type: functional; parameters: scale not given: the % may be the effect or the level left
[21] = Anti-inflammatory activity assessed using bovine serum albumin/egg albumin proteins assessed as protein denaturation measured at 95 degC for 20 mins by measuring turbidity by UV-Vis spectrophotometer; assay type: functional
Rattus norvegicus [22] = test: Anti-inflammatory activity in Carrageenan-induced paw edema in PO dosed rat model at 30 mg/kg measured after 4 hrs relative to control; assay type: functional
Erythrocyte = test: Anti-inflammatory activity in human red blood cells assessed as stabilization of cell membrane; assay type: functional, cell-based
Rattus norvegicus [23] = test: Anti-inflammatory activity against formalin-induced foot paw edema in PO dosed rat at 10 mg/kg assessed as inhibition of edema measured after 4 hr relative to control; assay type: functional
[24] = molecular target: T1, Prostaglandin G/H synthase 1 (Ovis aries, UniProt P05979); test: Inhibition of ovine COX-1 by EIA method
T1 sequence (P05979 whole entry): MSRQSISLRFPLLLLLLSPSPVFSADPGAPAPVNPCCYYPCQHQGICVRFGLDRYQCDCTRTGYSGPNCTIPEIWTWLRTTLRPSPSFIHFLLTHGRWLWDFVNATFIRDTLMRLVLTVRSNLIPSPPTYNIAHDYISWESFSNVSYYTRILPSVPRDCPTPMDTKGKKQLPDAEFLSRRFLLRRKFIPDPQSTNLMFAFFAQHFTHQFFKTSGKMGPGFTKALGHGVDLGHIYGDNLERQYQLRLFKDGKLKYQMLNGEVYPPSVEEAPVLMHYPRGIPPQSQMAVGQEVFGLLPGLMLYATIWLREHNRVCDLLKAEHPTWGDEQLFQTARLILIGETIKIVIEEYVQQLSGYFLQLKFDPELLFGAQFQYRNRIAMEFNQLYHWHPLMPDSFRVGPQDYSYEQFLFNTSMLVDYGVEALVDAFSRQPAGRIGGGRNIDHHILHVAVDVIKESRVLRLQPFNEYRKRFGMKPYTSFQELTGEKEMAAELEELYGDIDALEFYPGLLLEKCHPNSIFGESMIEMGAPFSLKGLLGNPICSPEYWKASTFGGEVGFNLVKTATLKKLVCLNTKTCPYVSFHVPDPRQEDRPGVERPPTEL

[25] = molecular target: T2, Polyunsaturated fatty acid 5-lipoxygenase (Homo sapiens, UniProt P09917); test: Inhibition of 5-LOX (unknown origin) after 5 mins by colorimetric method
T2 sequence (P09917 whole entry): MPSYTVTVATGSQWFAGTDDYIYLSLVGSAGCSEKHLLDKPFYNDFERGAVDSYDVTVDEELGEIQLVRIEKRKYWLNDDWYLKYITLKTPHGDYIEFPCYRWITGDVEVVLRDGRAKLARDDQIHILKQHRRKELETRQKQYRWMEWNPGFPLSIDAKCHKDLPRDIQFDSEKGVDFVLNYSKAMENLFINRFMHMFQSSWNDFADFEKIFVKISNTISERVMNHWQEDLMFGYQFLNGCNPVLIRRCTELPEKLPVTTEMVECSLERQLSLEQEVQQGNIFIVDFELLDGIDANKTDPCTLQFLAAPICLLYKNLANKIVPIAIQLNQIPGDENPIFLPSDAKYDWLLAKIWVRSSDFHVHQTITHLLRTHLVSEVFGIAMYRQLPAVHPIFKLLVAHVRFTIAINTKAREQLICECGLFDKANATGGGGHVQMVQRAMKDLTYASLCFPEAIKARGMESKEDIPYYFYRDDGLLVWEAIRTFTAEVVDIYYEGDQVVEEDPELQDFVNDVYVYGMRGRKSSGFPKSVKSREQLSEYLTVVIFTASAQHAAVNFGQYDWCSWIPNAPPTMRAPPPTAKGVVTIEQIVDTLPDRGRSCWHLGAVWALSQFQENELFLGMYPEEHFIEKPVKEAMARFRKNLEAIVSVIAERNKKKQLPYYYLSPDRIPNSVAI

[26] = molecular target: T3, Polyunsaturated fatty acid lipoxygenase ALOX15 (Homo sapiens, UniProt P16050); test: Inhibition of 15-LOX (unknown origin)
T3 sequence (P16050 whole entry): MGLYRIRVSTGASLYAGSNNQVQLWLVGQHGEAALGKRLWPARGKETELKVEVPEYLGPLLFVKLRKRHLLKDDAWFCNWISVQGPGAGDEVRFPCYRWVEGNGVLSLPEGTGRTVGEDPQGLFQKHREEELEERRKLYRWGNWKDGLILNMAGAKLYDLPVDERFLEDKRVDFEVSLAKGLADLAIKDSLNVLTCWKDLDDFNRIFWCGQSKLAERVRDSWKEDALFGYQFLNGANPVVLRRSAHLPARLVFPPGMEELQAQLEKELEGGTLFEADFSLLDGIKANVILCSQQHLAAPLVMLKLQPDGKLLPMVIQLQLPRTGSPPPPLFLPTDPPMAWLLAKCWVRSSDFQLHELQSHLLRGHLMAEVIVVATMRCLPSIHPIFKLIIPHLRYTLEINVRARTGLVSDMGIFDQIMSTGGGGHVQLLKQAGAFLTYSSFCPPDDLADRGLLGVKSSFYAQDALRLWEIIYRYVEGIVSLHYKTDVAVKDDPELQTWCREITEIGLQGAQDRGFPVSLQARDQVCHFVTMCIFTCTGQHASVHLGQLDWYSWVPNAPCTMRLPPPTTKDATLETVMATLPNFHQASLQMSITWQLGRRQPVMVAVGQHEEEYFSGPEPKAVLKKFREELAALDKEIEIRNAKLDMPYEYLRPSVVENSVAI

Question: What does the source list for `COc1ccc2c(c1)c(CC(=O)O)c(C)n2C(=O)c1ccc(Cl)cc1` [INDOMETHACIN]?
Answer: Activity (Rattus norvegicus [1]): 1.96 mm; Activity (Rattus norvegicus [2]): 79.41%; Activity (Mus musculus [3]): 47.76%; Activity (Rattus norvegicus [4]): 30.95%; Activity (Rattus norvegicus [5]): 56.8%; Activity (Rattus norvegicus [6]): 57.79%; Activity (Rattus norvegicus [7]): 50.81%; inhibition in vivo at 30 mg/kg (Rattus norvegicus [8]): 71.2%; inhibition (INH) (Rattus norvegicus [9]): 86.7%; UI (Rattus norvegicus [10]): 20.2; Activity (Rattus norvegicus [11]): 85.9%; Activity (Rattus norvegicus [12]): 74.56%; Activity (Rattus norvegicus [13]): 33.15%; Activity (Rattus norvegicus [14]): 43.3%; Activity (Rattus norvegicus [15]): 28.89%; Activity (Rattus norvegicus [16]): 40%

Question: For `c1ccc(N2CCN(c3cncc(-c4nc5ccccc5[nH]4)n3)CC2)cc1`, which Activity (Mus musculus [17]) is on record?
Answer: The Activity was 54.31%.

Question: With `O=C([O-])Cc1ccccc1Nc1c(Cl)cccc1Cl.[Na+]` [DICLOFENAC SODIUM] as the molecule, how does the Activity (Mus musculus [18]) read?
Answer: Its Activity is 76.25%.

Question: And the Activity (Rattus norvegicus [19])?
Answer: Its Activity is 78.05%.

Question: What about the Activity (Rattus norvegicus [20]) of the same molecule?
Answer: Its Activity is 60.82%.

Question: What about the IC50 [21] of the same molecule?
Answer: The IC50 was 54.65 µg/mL.

Question: And the inhibition in vivo at 30 mg/kg (Rattus norvegicus [22])?
Answer: The inhibition in vivo at 30 mg/kg was 93%.

Question: What about the EC50 (Erythrocyte) of the same molecule?
Answer: The EC50 was 11.7 µg/mL.

Question: And the inhibition in vivo at 10 mg/kg (Rattus norvegicus [23])?
Answer: Its inhibition in vivo at 10 mg/kg is 92.9%.

Question: For `O=C1c2ccccc2C(=O)N1c1nc2cc([N+](=O)[O-])ccc2n1Cc1ccc(-c2ccccc2)cc1`, which Activity (Rattus norvegicus [2]) is on record?
Answer: The Activity was 81.88%.

Question: And the IC50 [24]?
Answer: The IC50 was 9.85 µM.

Question: What about the IC50 [25] of the same molecule?
Answer: The IC50 was 0.32 µM.

Question: What about the IC50 [26] of the same molecule?
Answer: Its IC50 is 1.02 µM.
